Measured values from patent publication US7084239B1, “Cancer peptides of NY-ESO-1/CAG-3” (The United States of America as represented by the …, priority 1997, dated 2006).

Legend:
CTL clone 2 = test: T cell recognition (GM-CSF release) of peptide-pulsed EBV B cells by CTL clone 2; type: cell-based, human; conditions: peptide pulsed onto 1510EBV or 586EBV B cells
Text: FIGS. 7A–7C. An alternative open reading frame of the NY-ESO-1 gene and antigenic peptides recognized by CTL. FIG. 7A. Identification of antigenic peptides from the ORF2. Thirty peptides were synthesized based on all potential ORFs and screened. Representative data are shown here. Seven peptides derived from ORF2 (see FIG. 3A) were pulsed on HLA-A31 positive 1510EBV B cells and tested for T cell recognition based on GM-CSF release ([…], SEQ ID NO: 123; […], SEQ ID NO: 124; […], SEQ ID NO: 125; […], SEQ ID NO: 46; […], SEQ ID NO: 47; […], SEQ ID NO: 126; and […], SEQ ID NO: 127). 1510 EBV alone was used as a negative control. FIG. 7B. 1510EBV B cells were labeled with chromium for 2 h. The ESORF2-10-18 peptide was then pulsed on the chromium-labeled […] (solid square) and HLA-A31-negative 1102EBV (open circle) at different concentrations. 1510EBV pulsed with ESO10-53, which was recognized by CTL clone 5, was used for the specificity control (solid triangle). After peptide incubation and three washes, cytolysis of target cells by CTL-clone 2 was determined in a 4-h chromium release assay at an E:T ratio of 20:1. FIG. 7C. Several tumor lines and fresh breast tumors were tested for recognition by CTL clone 2 to determine whether the ORF2 is translated in different tumors. 1510EBV B cells pulsed with […] (SEQ ID NO: 25) (ESO10-53), […] (SEQ ID NO: 47) (ORF2-10-18), or alone were included to evaluate the reactivity and specificity of CTL clone 2 and 5. Expression of HLA-A31 on the tumor cells is indicated.
(§1) DNA transfection and GM-CSF assay were done as previously described (Wang, R. F., P. F. Robbins, Y. Kawakami, X. Q. Kang, and S. A. Rosenberg, 1995, J. Exp. Med. 181:799–804). Briefly, […] of DNA carrying a different fragment and 50 ng of the HLA-A31 DNA were mixed with 2 μl of lipofectamine in 100 μl of serum-free DMEM for 15–45 min. The DNA/lipofectamine mixture was then added to the COS-7 (5×10^4) cells and incubated overnight. The following day, cells were washed twice with DMEM medium. TIL586, CTL clone 5 or CTL clone 10 were added at a concentration of 5×10^4 cells/well in AIM-V medium containing 120 IU/ml of IL-2. After 18–24 h incubation, 100 μl of supernatant was collected and GM-CSF was measured in a standard ELISA assay (R+D Systems, Minneapolis, Minn.). […]
CTL clone 5 and TIL1244 were used for the specificity controls. […] To test the hypothesis that CTL may recognize a peptide from a gene product translated from an alternative open reading frame of the same gene, synthetic peptides were made with HLA-A31 Binding motif on the basis of amino acid sequence predicted from the second open reading frames (ORF2) (FIG. 3A). […]

CTL clone 14 = test: T cell recognition of peptide-pulsed EBV B cells by CTL clone 14; type: cell-based, human; conditions: peptide pulsed onto EBV B cells
Text: FIGS. 6A–6H. CTL clones 2 and 14 recognize the NY-ESO-1 gene, but not the ESO10-53 peptide derived from the NY-ESO-1 protein. CTL clones 2, 14 and 5 recognized NY-ESO-1 when cotransfected with HLA-A31 cDNA into COS-7 (FIG. 6A, C, E and G). TIL1244, which recognized TRP-2 But not NY-ESO-1, was used as a specificity control. FIGS. 6B, D, F and H. CTL clones 2, 5, 14, and TIL1244 recognized 586mel. […] TIL1244 recognized the TRP197-205 peptide derived from TRP-2, 586EBV B cells alone or pulsed with the ORF3P peptide from an alternative reading frame of TRP1 were negative controls. 397mel is an HLA-A31-negative, NY-ESO-1-positive tumor line.
as §1, with “TIL586, CTL clone 5 or CTL clone 10 were added at a concentration of 5×10^4 cells/well in AIM-V medium containing 120 IU/ml of IL-2.” left out

ASGPGGGAPR (listed as Homo sapiens) [ESO10-53]
Recognition by CTL clone 2, in words (CTL clone 2): did not recognize | Recognition by CTL clone 2, in words (CTL clone 2; listed as ESO 10-53): failed to recognize | Recognition by CTL clone 14, in words (CTL clone 14): did not recognize | Recognition by CTL clone 14, in words (CTL clone 14; listed as ESO 10-53): failed to recognize
